Reference: patent US20110230450A1, “PLATELET-ACTIVATING FACTOR (PAF) ANALOGS AND USES THEREOF” (Vascular Biogenics Lts, priority 2007, published 2011)

Tests used:
human platelets = assay: Platelet aggregation assay; format: cell-based; conditions: human platelet-rich plasma, 5 minutes; CI-302 in escalating concentrations of up to 1 mM; PAF 0.125-0.25 μM (FIGS. 2-4)
Description: Platelet aggregation assay: Platelet-rich plasma was prepared from citrated whole human blood by centrifugation (200 g for 20 minutes). The final platelet concentration was adjusted to 2×10^8 platelets/ml with autologous plasma. CI-302 and PAF dissolved in PBS were added to induce platelet activation while the platelet sample was stirred at 1,000 rpm at 37° C. Aggregation was recorded for 5 minutes using an AggRAM 4-channel aggregometer (AggRAM aggregation Remote Analyzer Module; Helena Laboratories).

IL-12/23 p40 [1] = assay: IL-12/23 p40 production by peptidoglycan-activated BMDCs (ELISA); format: cell-based, mouse; conditions: BMDCs activated with 10 μg/ml peptidoglycan
Description: (§1) Generation of bone-marrow derived dendritic cells (BMDC's): Bone-marrow was flushed out with cold RPMI-1640 medium from mice femur and tibia. A cell suspension was prepared and erythrocytes were removed using red blood cell (RBC) lysis buffer (Beit Haemek, Israel). Cells were washed in phosphate buffer saline (PBS) (Beit Haemek, Israel), and incubated at 4° C. for 15 minutes in buffer containing PBS and 0.5% bovine serum albumin (BSA) with mouse B220 and CD90 microbeads (Miltenyi biotech, Bergisch Gladbach, Germany). Cells were then washed, resuspended in the same buffer, and depleted from B and T cells on a Midi-Macs separation unit through a LD or LS column (Miltenyi Biotech). The depleted cells were then counted, washed and seeded (10^6/ml) in medium containing RPMI-1640 medium, L-glutamine, β-mercaptoethanol, 10% fetal calf serum (FCS), antibiotics (penicillin, streptomycin) and 20 ng/ml of mouse granulocyte-macrophage colony-stimulating factor (GM-CSF) (Peprotech, Rehovot, Israel). Medium was replaced every other day and cells were used for subsequent experiments on days 5-6 post culturing.
Cytokine analysis: For the detection of cytokine production, supernatants from 24-hour post-treatment BMDCs were tested with Duoset ELISA kits for mouse IL12/23 p40 (R&D systems, Minneapolis, Minn.). […]

IL-12/23 p40 [2] = assay: q-PCR for p40 mRNA in peptidoglycan-activated CD11c+ BMDCs; format: cell-based, mouse; conditions: 20 μg/ml for 1 hour, then 10 μg/ml peptidoglycan for 2, 3 and 4 hours, normalized to GAPDH (FIG. 6)
Description: as §1, with “Medium was replaced every other day and cells were used for subsequent experiments on days 5-6 post culturing.” left out
Preparation of RNA, cDNA and Quantitative Real Time PCR (Q-PCR): RNA was prepared from cells using an RNeasy mini kit (Qiagen, Valencia, Calif.). […] All real time quantitative PCR (q-PCR) reactions were performed using LightCycler Taqman master (Roche Diagnostics, Mannheim, Germany) and the LightCycler (Roche). […]

MOG induced EAE = assay: MOG peptide-induced experimental autoimmune encephalomyelitis (EAE), clinical score; format: in vivo, mice; conditions: from 5 days before to 5 days after MOG 35-55 immunization (FIG. 7)
Description: Mice: Female 8-10 week old […] mice were purchased from Harlan Laboratories (Israel). EAE (experimental autoimmune encephalomyelitis) induction: Mice were immunized subcutaneously with an emulsion containing 1.5 mg/ml MOG peptide 35-55 ([…]) (Sigma-Aldrich, Rehovot, Israel) and 2.5 mg/ml complete Freund's adjuvant (CFA), 100 μl in each flank. Pertussis toxin (500 ng in 500 μl PBS) was administered intra-peritoneally immediately and 48 hours after immunization. For prevention of EAE, CI-302 or PBS was given orally once a day for 10 consecutive days beginning 5 days before immunization. The severity of EAE was assessed utilizing clinical scores determined as follows: 0=normal, 1=limp tail, 2=weakness of hind limbs, 3=hind leg paralysis, 4=hind and fore leg paralysis, 5=moribund or death

[3] = system: pro-inflammatory chemokines and cytokines in spinal cords; assay: q-PCR for pro-inflammatory chemokines and cytokines in spinal cords of EAE mice; format: in vivo; conditions: 0.4 mg/kg oral, 28 days after immunization
Description: Preparation of RNA, cDNA and Quantitative Real Time PCR (Q-PCR): RNA was prepared from cells using an RNeasy mini kit (Qiagen, Valencia, Calif.). For cDNA preparation, 1 μg of RNA was combined with oligo-dT for 10 minutes at 70° C., and 1^St strand buffer, dithiothreitol (DTT), deoxynucleotides (dNTP) and super-script reverse transcriptase (SS-II) (Invitrogen, Carlsbad, Calif.) were then added for 50 minutes at 42° C. The reaction was ended by incubation for an additional 15 minutes at 70° C. All real time quantitative PCR (q-PCR) reactions were performed using LightCycler Taqman master (Roche Diagnostics, Mannheim, Germany) and the LightCycler (Roche). For tissue mRNA expression, total RNA was extracted from spinal cord using the RNeasy lipid tissue mini kit RNA. Ready sets of probe with primers for q-PCR were purchased from Applied Biosystems (Foster City, Calif.).
EAE (experimental autoimmune encephalomyelitis) induction: Mice were immunized subcutaneously with an emulsion containing 1.5 mg/ml MOG peptide 35-55 ([…]) (Sigma-Aldrich, Rehovot, Israel) and 2.5 mg/ml complete Freund's adjuvant (CFA), 100 μl in each flank. Pertussis toxin (500 ng in 500 μl PBS) was administered intra-peritoneally immediately and 48 hours after immunization. For prevention of EAE, CI-302 or PBS was given orally once a day for 10 consecutive days beginning 5 days before immunization.

[4] = system: collagen-induced arthritis; assay: Collagen-induced arthritis (CIA), arthritis score; format: in vivo, DBA/1 male mice; conditions: 0.4 mg/kg by gavage daily from day 22 to day 39, CIA mouse model (FIG. 9)
Description: Collagen-induced arthritis (CIA) induction: DBA/1 male mice were immunized to induce arthritis by a collagen injection containing complete Freund's adjuvant (CFA) in the base of the tail (day 0) and a booster shot in the flank (day 21). Mice were followed for arthritis development until day 39. Administration by gavage of the tested compounds and control substances began on day 22 and was carried out on a daily basis (6 times per week).
The severity of arthritis was assessed as follows:
Each paw is scored on a scale of 0-4 for the degree of swelling, erythema, and deformity of the joints (maximum score 16 per animal) as follows [Brackertz et al., 1977]:
0=normal 1=slight erythema and/or swelling of the ankle or wrist or toes 2=moderate erythema and/or swelling of the ankle or wrist 3=severe erythema and/or swelling of the ankle or wrist (or moderate in combination of all toes) 4=complete erythema and swelling of toes or fingers and ankle or wrist, and inability to bend the ankle or wrist

[5] = system: tyrosine phosphorylation in peritoneal macrophages; assay: Western blot of phosphotyrosine in peritoneal macrophages; format: cell-based; conditions: thioglycolate-stimulated peritoneal macrophages, 20 μg/ml, 10 minutes (FIG. 10)
Description: Western blot: Thioglycolate-stimulated peritoneal macrophages were treated for 10 minutes with 20 μg/ml of CI-302. 20 μg/ml of phosphatidylcholine or solvent served as negative controls, whereas CI-201 served as a positive control. Whole cell lysates were resolved by SDS-PAGE on 10% Tris/HCl denaturing gel, transferred to nitrocellulose membranes and blotted with anti-phosphotyrosine antibody. Blotting with anti-ERK1/2 antibody served as a loading control.

Molecule: CCCCCCCCCCCCCCCCOC[C@H](COP(=O)([O-])OCC[N+](C)(C)C)OC(=O)CCC [CI-302, 1-hexadecyl-2-butyroyl-sn-glycero-3-phosphocholine]
- platelet aggregation (human platelets): no platelet aggregation was observed
- maximal reduction of p40 production (IL-12/23 p40 [1]; 1 hour pre-incubation, supernatants 24 hours, highest CI-302 concentration tested (FIG. 5A)): 45%
- production of p40 by activated BMDCs (IL-12/23 p40 [1]; escalating CI-302 concentrations, ELISA at 24 hours (FIG. 5A)): significantly inhibited production of p40 by activated BMDCs in a dose-dependent manner
- p40 mRNA expression (IL-12/23 p40 [2]): inhibited p40 mRNA expression considerably
- protection against EAE development (mean clinical score) (MOG induced EAE; 0.04 mg/kg orally once a day): noticeable though milder protection
- protection against EAE development (mean clinical score) (MOG induced EAE; 0.4 mg/kg orally once a day): close to complete protection
- p40 gene transcription in spinal cord ([3]; relative to PBS-treated group (FIG. 8A)): reduced
- p35 gene transcription in spinal cord ([3]; relative to PBS-treated group (FIG. 8B)): reduced
- CCL2 (MCP-1) transcription in spinal cord ([3]; relative to PBS-treated group (FIG. 8C)): reduced
- IFN-γ transcription in spinal cord ([3]; relative to PBS-treated group (FIG. 8D)): reduced
- TNF-α transcription in spinal cord ([3]; relative to PBS-treated group (FIG. 8E)): reduced
- CD4 mRNA levels in spinal cord ([3]; relative to control mice (FIG. 8F)): considerably lower
- arthritis severity (mean score) [4]: decreased arthritis severity throughout the study period
- level of phosphotyrosine [5]: strongly reduced the level of phosphotyrosine

Molecule: CCCCCCCCCCCCCCCCOC[C@H](COP(=O)([O-])OCC[N+](C)(C)C)OC(C)=O [PAF, 1-hexadecyl-2-acetoyl-sn-glycero-3-phosphocholine, reference compound]
- platelet aggregation (human platelets): substantial platelet aggregation

Molecule: L-a-phosphatidylcholine [PC, reference compound]
- p40 mRNA expression (IL-12/23 p40 [2]): little or no effect
